Data from patent publication US10696677B2 (Research Triangle Institute, priority 2016, dated 2020).
“Also recorded” adds a separate entry of the source. Where two headings read alike, the source gives them in different places.

Key:
[1] = in vivo brain penetration, brain and plasma levels by LC/MS/MS; settings: mouse, po, mice, cassette dosed orally at 2.5 mg/kg, read-out: Brain:Plasma Ratio
Method: Select compounds were chosen for in vivo studies to determine penetration into the CNS. Compounds were cassette dosed orally at 2.5 mg/kg in mice. Brain and plasma samples were collected at 1, 2, 4, and 24 hours post dose and samples were analyzed by LC/MS/MS (Table 5, below). Unperfused brains were used which contain a blood volume of approximately 4%.

alcoholic steatosis, AS = settings: past studies; cited from earlier work
MDCK = MDCK BBB Assay; format: in vitro ADME; settings: for % Permeable: MDCK BBB assay; for MDCK BBB Assay (Basolateral/Apical Peak Area Ratio) Mean: MDCK cells
hCB1 [2] = target: T1, hCB1 (Homo sapiens, UniProt P21554); experiment: radioligand displacement binding at CB1 (membranes of CHO-K1 cells over-expressing receptor); settings: for CB2 Ki/CB1 Ki selectivity ratio: CB1 versus CB2
Method: (§1) All compounds were characterized by H^1 NMR and evaluated using a calcium mobilization assay. […] Further characterization of select compounds was performed using radioligand displacement of [3H]1 and equilibrium dissociation constant (Ki) values were determined.

hCB1 [3] = target: T1, hCB1; experiment: functional fluorescent CB1 activated Gαq16-coupled intracellular calcium mobilization assay in CHO-K1 cells; format: cell-based; set-up: expressed in transfected cells; host or cells: CHO-K1 (membranes); settings: average of 3-6 measurements, read-out: Apparent antagonist dissociation constant (Ke) at hCB1
hCB2 = hCB2 (Homo sapiens, UniProt P34972); experiment: radioligand displacement binding at CB2 ([3H]CP55940, membranes of CHO-K1 cells over-expressing receptor)
Method: as §1

mouse model of AS = experiment: alcohol induced liver steatosis mouse model, Oil Red O staining of liver sections; format: in vivo, C57BL/6J mice
Description: FIG. 1A-1B. […] (FIG. 1A) Representative liver sections from mice receiving control diet without ethanol+vehicle (left panel), ethanol containing diet+vehicle (center panel) or ethanol containing diet+98 (right panel).
Pathogen-free female C57BL/6J mice, aged 9 weeks (Jackson Laboratories, Bar Harbor, Me., USA) weighing 19-21 g were used in this study. C57BL/6 mice were offered solid PicoLab Certified Rodent LabDiet® 5053 (pellet) ad libitum during the acclimation period following which, all animals were switched to a Lieber-DeCarli 82′ Control (Catalog No: F1259SP, BioServ®) diet which was nutritionally complete. […] Digitized images of mouse liver sections (10 μm in thickness) were assessed semi-quantitatively for degree of steatosis using Image J software (NIH, Bethesda, Md.). Briefly, a 5 in^2 digital grid (Image J Command Menu: Plugin-Analyze-Grid) was placed on each image wherein lipid droplets in 6 grids per image were counted and the average number of oil droplets was recorded for each animal (n=6, per group). […] Statistical significance was determined through ANOVA between treatment and control groups using Graph Pad Prism 7.0 (GraphPad Software Inc., La Jolla, Calif., USA) at a confidence level of *p<0.001.
In contrast, the ethanol containing diet caused significant accumulation of lipid droplets (center panel in FIG. 1A). […] The data are quantified in FIG. 1B.

[4] = read-out: Binding affinity (Ki) at hCB1, radioligand displacement, CHO-K1 membranes, average of 3-6 measurements

hCB2, sequence (P34972 whole entry): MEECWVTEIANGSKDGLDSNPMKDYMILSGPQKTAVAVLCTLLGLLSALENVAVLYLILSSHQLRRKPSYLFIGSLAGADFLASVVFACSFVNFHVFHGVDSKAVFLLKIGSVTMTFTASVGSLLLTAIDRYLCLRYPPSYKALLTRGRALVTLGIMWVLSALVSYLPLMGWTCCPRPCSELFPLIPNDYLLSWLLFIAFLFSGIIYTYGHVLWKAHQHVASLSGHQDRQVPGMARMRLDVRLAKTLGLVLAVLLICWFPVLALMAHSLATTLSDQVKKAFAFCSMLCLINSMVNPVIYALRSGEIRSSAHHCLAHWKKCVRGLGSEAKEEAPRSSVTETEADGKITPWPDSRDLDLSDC
T1 sequence (P21554 whole entry): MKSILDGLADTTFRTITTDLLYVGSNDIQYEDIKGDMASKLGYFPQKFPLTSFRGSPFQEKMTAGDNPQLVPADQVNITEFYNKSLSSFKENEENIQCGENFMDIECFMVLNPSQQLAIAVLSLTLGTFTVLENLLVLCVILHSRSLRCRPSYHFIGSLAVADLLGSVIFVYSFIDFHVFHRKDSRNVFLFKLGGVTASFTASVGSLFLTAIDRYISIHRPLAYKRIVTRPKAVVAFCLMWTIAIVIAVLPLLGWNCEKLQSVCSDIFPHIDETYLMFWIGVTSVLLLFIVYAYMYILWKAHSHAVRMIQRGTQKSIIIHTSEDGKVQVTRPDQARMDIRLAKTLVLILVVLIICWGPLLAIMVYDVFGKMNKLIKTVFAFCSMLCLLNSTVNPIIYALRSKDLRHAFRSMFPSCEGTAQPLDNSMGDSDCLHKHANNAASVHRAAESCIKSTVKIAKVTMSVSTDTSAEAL

% Permeable (MDCK) | CB2 Ki/CB1 Ki selectivity ratio (hCB1 [2]) | melting point | Kb (hCB1 [3]) | Ki (hCB2) | SMILES | Kp [1] | other results
– | – | – | – | – | Clc1ccc(-n2c(-c3ccccc3Cl)nc3c(N4CCN(Cc5cccc(Cl)c5)CC4)ncnc32)cc1 [Compound 99, 6-[4-(3-Chlorobenzyl)piperazin-1-yl]-8-(2-chlorophenyl)-9-(4-chlorophenyl)-9H-purine] | 0.09 | –
– | – | – | – | – | Cc1c(C(=O)NN2CCCCC2)nn(-c2ccc(Cl)cc2Cl)c1-c1ccc(Cl)cc1 [rimonabant] | – | reduction of alcoholic steatosis (AS) (alcoholic steatosis, AS): effective in reducing AS
0% | 26000 | 232 to 233 °C | 0.002 µM | 53 µM | O=S(=O)(NC1CCN(c2ncnc3c2nc(-c2ccccc2Cl)n3-c2ccc(Cl)cc2)CC1)c1ccc(F)cc1F [Compound 5, N-{1-[8-(2-Chlorophenyl)-9-(4-chlorophenyl)-9H-purin-6-yl]piperidin-4-yl}-2,4-difluorobenzene-1-sulfonamide] | – | MDCK BBB Assay (Basolateral/Apical Peak Area Ratio) Mean (MDCK): 0.0008; Ki (hCB1 [2]; [4]): 0.002 µM
– | – | – | – | – | Clc1ccc(-n2c(-c3ccccc3Cl)nc3c(N4CCN(Cc5ccccc5Cl)CC4)ncnc32)cc1 [Compound 98, 6-[4-(2-Chlorobenzyl)piperazin-1-yl]-8-(2-chlorophenyl)-9-(4-chlorophenyl)-9H-purine] | 0.06 | hepatic lipid accumulation / liver steatosis (Oil Red O lipid droplets) (mouse model of AS; ethanol diet-fed mice, 1.25 mg/kg twice daily by oral gavage, two weeks, vs ethanol+vehicle, 1.25 mg/kg): significantly reduced hepatic lipid accumulation; also recorded: statistically significant reduction of liver steatosis; disease progression/development in a mouse model of AS (mouse model of AS; mouse model of alcoholic steatosis): block disease progression/development
– | 34 | 147 to 149 °C | 0.027 µM | 0.24 µM | FC(F)Oc1ccc(-n2c(-c3ccccc3Cl)nc3c(N4CCN(Cc5ccccc5Cl)CC4)ncnc32)cn1 [Compound 46, 8-(2-Chlorophenyl)-6-{4-[(2-chlorophenyl)methyl]piperazin-1-yl}-9-[6-(difluoromethoxy)pyridin-3-yl]-9H-purine] | – | Ki (hCB1 [2]): 0.007 µM
0% | >11 | – | 0.044 µM | > 6 µM | N=C(NC1CCN(c2ncnc3c2nc(-c2ccccc2Cl)n3-c2ccc(Cl)cc2)CC1)c1ccc(F)cc1 [Compound 26, N-{1-[8-(2-chlorophenyl)-9-(4-chlorophenyl)-9H-purin-6-yl]piperidin-4-yl}-4-fluorobenzenecarboximidamide] | 0.16 | MDCK BBB Assay (Basolateral/Apical Peak Area Ratio) Mean (MDCK): 0.0019; Ki (hCB1 [2]): 0.52 µM

SMILES | % Permeable (MDCK) | CB2 Ki/CB1 Ki selectivity ratio (hCB1 [2]) | melting point | Kb (hCB1 [3]) | Ki (hCB2) | Kp [1] | other results
O=C(Nc1ccc(OC(F)F)nc1)N1CCN(c2ncnc3c2nc(-c2ccccc2Cl)n3-c2ccc(Cl)cc2)CC1 [Compound 44, 4-[8-(2-Chlorophenyl)-9-(4-chlorophenyl)-9H-purin-6-yl]-N-[6-(difluoromethoxy)pyridin-3-yl]piperazine-1-carboxamide] | – | – | 118 to 120 °C | – | 74 µM | 0.18 | Ki (hCB1 [2]; [4]): 0.004 µM
O=C(Nc1ccccc1F)NC1CCN(c2ncnc3c2nc(-c2ccccc2Cl)n3-c2ccc(Cl)cc2)CC1 [Compound 19, 3-{1-[8-(2-Chlorophenyl)-9-(4-chlorophenyl)-9H-purin-6-yl]piperidin-4-yl}-1-(2-fluorophenyl)urea] | 0% | – | – | – | – | 0.03 | –
